Source: patent US5521284A, “Human cancer inhibitory pentapeptide amides and esters” (priority 1994, dated 1996)

Tested on: P388 Lymphocytic Leukemia
Test: Murine in vivo system, P388 Lymphocytic Leukemia
Details: 3.25 μg/kg
Description: (§1) T/C = Test Control, both bearing tumor, expressed in time of survival.
(§2) T/C - 100 = % life extension.

Row | Substance | cures
1 | Dolastatin 10 | 17%

Same assay, conditions: 6.5 μg/kg

Row | Substance | cures
2 | Dolastatin 10 | 17%

Same assay, conditions: 13.0 μg/kg

Row | Substance | T/C
3 | Dolastatin 10 | toxic

Tested on: L1210 Lymphocytic Leukemia
Test: Murine in vivo system, L1210 Lymphocytic Leukemia
Details: 1.63 μg/kg; time of survival
Description: (§3) Experimental Anticancer Activity of Dolastatin 10 in
(§4) Murine in vivo Systems, T/C (μg/kg)
as §2

Row | Substance | T/C
4 | Dolastatin 10 | 120

Tested on: B16 Melanoma
Test: Murine in vivo system, B16 Melanoma
Details: 11.11 μg/kg
Description: as §3, §4, §2

Row | Substance | cures
5 | Dolastatin 10 | 40%

Tested on: LOX Human Melanoma Xenograph
Test: LOX Human Melanoma Xenograph (Nude Mouse)
Details: 3.25 μg/kg
Description: as §1, §2

Row | Substance | cures
6 | Dolastatin 10 | 17%

Same assay, conditions: 3.25 μg/kg; time of survival

Row | Substance | T/C
7 | Dolastatin 10 | 170

Same assay, conditions: 6.5 μg/kg

Row | Substance | cures
8 | Dolastatin 10 | 33%

Same assay, conditions: 13 μg/kg

Row | Substance | cures
9 | Dolastatin 10 | 50%

Same assay, conditions: 26 μg/kg

Row | Substance | cures
10 | Dolastatin 10 | 67%

Same assay, conditions: 52 μg/kg

Row | Substance | T/C
11 | Dolastatin 10 | toxic

Same assay, conditions: Lox in separate experiments; 43 μg/kg; time of survival

Row | Substance | T/C
12 | Dolastatin 10 | 340

Tested on: Human Mammary Xenograph
Test: Human Mammary Xenograph Nude Mouse
Details: 26 μg/kg
Description: as §1, §2

Row | Substance | T/C
13 | Dolastatin 10 | Toxic

Tested on: OVCAR-3 Human Ovary Xenograph
Test: OVCAR-3 Human Ovary Xenograph Nude Mouse
Assay type: in vivo
Details: 40 μg/kg; time of survival
Description: as §3, §4, §2

Row | Substance | T/C
14 | Dolastatin 10 | 300

Tested on: MX-1 Human Mammary Xenograft
Test: MX-1 Human Mammary Xenograft (Tumor Regression)
Assay type: in vivo, Murine
Details: 6.25 μg/kg
Description: as §3, §4, §2

Row | Substance | T/C (Tumor Regression)
15 | Dolastatin 10 | 69

Same assay, conditions: 13 μg/kg

Row | Substance | T/C (Tumor Regression)
16 | Dolastatin 10 | 61

Same assay, conditions: 26 μg/kg

Row | Substance | T/C (Tumor Regression)
17 | Dolastatin 10 | 50

Same assay, conditions: 52 μg/kg

Row | Substance | T/C (Tumor Regression)
18 | Dolastatin 10 | 14

Tested on: OVCAR-3
Test: NCI in vitro mini panel, Ovarian OVCAR-3
Assay type: cell-based, Human
Details: 48 hrs
Description: (§5) ED50 (P388) and GI50 (HTCL) identify the drug dose which reduces the percent tumor/cell growth to 50%. There is no mathematical difference between ED50 and GI50, both of which are calculated using the same formula. The only difference is historical usage.
(§6) TGI, means "Total Growth Inhibition", and identifies the drug dose needed to yield zero percent growth, i.e. there are just as many cells at the end of the experiment as were present at the beginning. Whether just as many cells were killed as were produced (steady state), or no growth occurred (total inhibition) cannot be distinguished.
(§7) LC50, means "Lethal Concentration 50%", and identifies the drug concentration which reduces to one-half of the cells originally present at the beginning of the experiment.
(§8) Each drug is tested at five (5) doses: 100-10-1-0.1-0.01--μg/mL. Percent Growths are calculated for each dose. The two (or three) doses with growth values above, below, (or near to) 50% growth are used to calculate the ED50 /GI50 values using a linear regression computation. If no dose yields a growth value under 50%, the results are expressed as: ED50 >(highest dose). If no dose yields growth higher than 50% growth, then ED50 <(lowest dose). Similar calculations are performed for the TGI at 0% growth, and at -50% growth for the LC50.
(§9) At the start of each experiment, cells from the in vitro cell cultures are inoculated into the appropriate tubes or microtiter plates. One set of control tubes/plates is immediately counted to determine the number of cells at the start of the experiment. This is the "baseline count", or "Tzero reading". At the end of the experiment (48 hrs later), a second set of control tubes/plates is analyzed to determine the "Control Growth" value. The growth (or death) of cells relative to the initial quantity of cells is used to define the "Percent of Growth."
(§10) For each of six cell lines, GI50, TGI, and LC50 amounts were also calculated for each of the compounds. Each compound was also tested against the PS-388 cell line and for this test an ED50 was calculated.
(§11) The protocols followed, for the NCI minipanel are, except for the number of cell lines, those established by M. R. Boyd Ph.D., and well known to those of ordinary skill in the art. The procedure followed for the test against PS-388 Leukemia is the same that was followed in the superseded NCI P-388 screening test, which is also well known to those having ordinary skill in the art.

Row | Substance | GI-50 | LC-50 | TGI
19 | Dov-Val-Dil-Dap Pentyl ester [Compound 16a] | 0.00052 µg/mL | > 1 µg/mL | 1.1 ng/mL
20 | Dov-Val-Dil-Dap hexylamide [Compound 16c] | 0.0005 µg/mL | > 0.01 µg/mL | 3.9 ng/mL
21 | Dov-Val-Dil-Dap Octyl ester [Compound 16b] | 0.0031 µg/mL | > 1 µg/mL | 40 ng/mL
22 | Dov-ile-Dil-Dap-Met-OMe [Compound 14] | 0.000067 µg/mL | > 1 µg/mL | 0.67 ng/mL
23 | Dov-Ie-Dil-Dap-Doe [Compound 12] | 0.0000000091 µg/mL | > 1 µg/mL | 6e-05 ng/mL

Tested on: SF-295
Test: NCI in vitro mini panel, CNS SF-295
Assay type: cell-based, Human
Details: 48 hrs
Description: as §5, §6, §7, §8, §9, §10, §11

Row | Substance | LC-50 | TGI | GI-50
24 | Dov-Val-Dil-Dap Pentyl ester [Compound 16a] | > 1 µg/mL | 21 ng/mL | –
25 | Dov-Val-Dil-Dap hexylamide [Compound 16c] | > 0.01 µg/mL | > 10 ng/mL | 0.0011 µg/mL
26 | Dov-Val-Dil-Dap Octyl ester [Compound 16b] | > 1 µg/mL | > 1000 ng/mL | 0.0054 µg/mL
27 | Dov-ile-Dil-Dap-Met-OMe [Compound 14] | > 1 µg/mL | > 1000 ng/mL | 0.00025 µg/mL
28 | Dov-Ie-Dil-Dap-Doe [Compound 12] | > 1 µg/mL | 0.00025 ng/mL | 0.000000025 µg/mL

Tested on: A498
Test: NCI in vitro mini panel, Renal A498
Assay type: cell-based, Human
Details: 48 hrs
Description: as §5, §6, §7, §8, §9, §10, §11

Row | Substance | GI-50 | LC-50 | TGI
29 | Dov-Val-Dil-Dap Pentyl ester [Compound 16a] | < 0.0001 µg/mL | > 1 µg/mL | 180 ng/mL
30 | Dov-Val-Dil-Dap hexylamide [Compound 16c] | 0.0019 µg/mL | > 0.01 µg/mL | > 10 ng/mL
31 | Dov-Val-Dil-Dap Octyl ester [Compound 16b] | 0.025 µg/mL | > 1 µg/mL | 550 ng/mL
32 | Dov-ile-Dil-Dap-Met-OMe [Compound 14] | 0.00027 µg/mL | > 1 µg/mL | 35 ng/mL
33 | Dov-Ie-Dil-Dap-Doe [Compound 12] | 0.000000058 µg/mL | > 1 µg/mL | 17 ng/mL

Tested on: NCI-H460
Test: NCI in vitro mini panel, Lung-NSC NCI-H460
Assay type: cell-based, Human
Details: 48 hrs
Description: as §5, §6, §7, §8, §9, §10, §11

Row | Substance | GI-50 | LC-50 | TGI
34 | Dov-Val-Dil-Dap Pentyl ester [Compound 16a] | 0.00034 µg/mL | > 1 µg/mL | 1.1 ng/mL
35 | Dov-Val-Dil-Dap hexylamide [Compound 16c] | 0.00071 µg/mL | > 0.01 µg/mL | 5.1 ng/mL
36 | Dov-Val-Dil-Dap Octyl ester [Compound 16b] | 0.0042 µg/mL | > 1 µg/mL | 58 ng/mL
37 | Dov-ile-Dil-Dap-Met-OMe [Compound 14] | 0.00012 µg/mL | > 1 µg/mL | 0.13 ng/mL
38 | Dov-Ie-Dil-Dap-Doe [Compound 12] | 0.0000000058 µg/mL | > 1 µg/mL | 6.5e-05 ng/mL

Tested on: KM20L2
Test: NCI in vitro mini panel, Colon KM20L2
Assay type: cell-based, Human
Details: 48 hrs
Description: as §5, §6, §7, §8, §9, §10, §11

Row | Substance | LC-50 | TGI | GI-50
39 | Dov-Val-Dil-Dap Pentyl ester [Compound 16a] | > 1 µg/mL | 13 ng/mL | –
40 | Dov-Val-Dil-Dap hexylamide [Compound 16c] | > 0.01 µg/mL | 6.6 ng/mL | 0.00092 µg/mL
41 | Dov-Val-Dil-Dap Octyl ester [Compound 16b] | > 1 µg/mL | 130 ng/mL | 0.0017 µg/mL
42 | Dov-ile-Dil-Dap-Met-OMe [Compound 14] | > 1 µg/mL | 1.3 ng/mL | 0.000034 µg/mL
43 | Dov-Ie-Dil-Dap-Doe [Compound 12] | > 1 µg/mL | 0.0001 ng/mL | 0.0000000072 µg/mL

Tested on: SK-MEL-5
Test: NCI in vitro mini panel, Melanoma SK-MEL-5
Assay type: cell-based, Human
Details: 48 hrs
Description: as §5, §6, §7, §8, §9, §10, §11

Row | Substance | GI-50 | LC-50 | TGI
44 | Dov-Val-Dil-Dap Pentyl ester [Compound 16a] | 0.00066 µg/mL | > 1 µg/mL | 31 ng/mL
45 | Dov-Val-Dil-Dap hexylamide [Compound 16c] | 0.00058 µg/mL | > 0.01 µg/mL | > 10 ng/mL
46 | Dov-Val-Dil-Dap Octyl ester [Compound 16b] | 0.0027 µg/mL | > 1 µg/mL | > 1000 ng/mL
47 | Dov-ile-Dil-Dap-Met-OMe [Compound 14] | 0.000044 µg/mL | > 1 µg/mL | 22 ng/mL
48 | Dov-Ie-Dil-Dap-Doe [Compound 12] | 0.0000000048 µg/mL | > 1 µg/mL | 0.00015 ng/mL

Tested on: PS-388
Test: PS-388 Mouse Leukemia cell line test
Assay type: cell-based
Details: Mouse Leukemia PS-388
Description: as §5, §8, §9, §10, §11

Row | Substance | ED-50
49 | Dov-Val-Dil-Dap Pentyl ester [Compound 16a] | 0.021 µg/mL
50 | Dov-Val-Dil-Dap hexylamide [Compound 16c] | 0.00227 µg/mL
51 | Dov-Val-Dil-Dap Octyl ester [Compound 16b] | 0.029 µg/mL
52 | Dov-ile-Dil-Dap-Met-OMe [Compound 14] | 0.00032 µg/mL
53 | Dov-Ie-Dil-Dap-Doe [Compound 12] | 0.0000248 µg/mL
